Where a name gives a salt, the structure may show the parent alone. Read-outs that look alike come from different tables or passages of the source. Marks after values point to notes of the source that are not given here.
Experiments:
[1] = target: S. aureus 133 Translation; assay: S. aureus in vitro transcription-translation assay (S30 extract, firefly luciferase reporter); assay type: biochemical
Text: In vitro Transcription-Translation with S. aureus Extracts
Construction of an S. aureus Luciferase Reporter Plasmid
A reporter plasmid which can be used in an in vitro transcription-translation assay from S. aureus is constructed by using the plasmid pBESTluc (Promega Corporation, USA). The E. coli tac promoter present in this plasmid in front of the firefly luciferase is replaced by the capA1 promoter with appropriate Shine-Dalgarno sequence from S. aureus. The primers CAPFor 5′-CGGCCAAGCTTACTCGGAT-[…] […]-3′ and CAPRev 5′-[…]-3′ are used for this. The primer CAPFor contains the capA1 promoter, the ribosome binding site and the 5′ region of the luciferase gene. After PCR using pBESTluc as template it is possible to isolate a PCR product which contains the firefly luciferase gene with the fused capA1 promoter. This is, after restriction with ClaI and HindIII, ligated into the vector pBESTluc which has likewise been digested with ClaI and HindIII. The resulting plasmid pla is able to replicate in E. coli and be used as template in the S. aureus in vitro transcription-traslation assay.
Preparation of S30 Extracts from S. aureus
Six litres of BHI medium are inoculated with a 250 ml overnight culture of an S. aureus strain and allowed to grow at 37° C. until the OD600 run is 2-4. The cells are harvested by centrifugation and washed in 500 ml of cold buffer A (10 mM Tris acetate, pH 8.0, 14 mM Magnesium acetate, 1 mM DTT, 1 M KCl). After renewed centrifugation, the cells are washed in 250 ml of cold buffer A with 50 mM KCl, and the resulting pellets are frozen at −20° C. for 60 min. The pellets are thawed on ice in 30 to 60 min and taken up to a total volume of 99 ml in buffer B (10 mM Tris acetate, pH 8.0, 20 mM Magnesium acetate, 1 mM DTT, 50.mM KCl). 1.5 ml portions of lysostaphin (0.8 mg/ml) in buffer B are introduced into 3 precooled centrifuge cups and each mixed with 33 ml of the cell suspension. The samples are incubated at 37° C., shaking occasionally, for 45 to 60 min, before 150 μl of a 0.5 M DTT solution are added. The lysed cells are centrifuged at 30 000×g and 4° C. for 30 min. The cell pellet is taken up in buffer B and then centrifuged again under the same conditions, and the collected supernatants are combined. The supernatants are centrifuged again under the same conditions, and 0.25 volume of buffer C (670 mM Tris acetate, pH 8.0, 20 mM Magnesium acetate, 7 mM Na3 phosphoenolpyruvate, 7 mM DTT, 5.5 mM ATP, 70 μM amino acids (complete from Promega), 75 μg of pyruvate kinase (Sigma, Germany)/ml are added to the upper ⅔ of the supernatant. The samples are incubated at 37° C. for 30 min. The supernatants are dialysed against 2 l of dialysis buffer (10 mM Tris acetate, pH 8.0, 14 mM Magnesium acetate, 1 mM DTT, 60 mM Potassium acetate) in a dialysis tube with a 3500 Da cut-off with one buffer change at 4° C. overnight. The dialysate is concentrated to a protein concentration of about 10 mg/ml by covering the dialysis tube with cold PEG 8000 powder (Sigma, Germany) at 4° C. The S30 extracts can be stored in aliquots at −70° C.
Determination of the IC50 in the S. aureus in vitro Transcription-Translation Assay Inhibition of protein biosynthesis of the compounds can be shown in an in vitro transcription-translation assay. The assay is based on the cell-free transcription and translation of firefly luciferase using the reporter plasmid pla as template and cell-free S30 extracts obtained from S. aureus. The activity of the resulting luciferase can be detected by luminescence measurement.
The amount of S30 extract or plasmid pla to be employed must be tested anew for each preparation in order to ensure an optimal concentration in the assay. 3 μl of the substance to be tested, dissolved in 5% DMSO, are introduced into an MTP. Then 10 μl of a suitably concentrated plasmid solution pla are added. […]

S. aureus 133 = assay: Rate of spontaneous resistance; assay type: cell-based
Procedure: (§1) Determination of the Rates of Spontaneous Resistance to S. aureus
(§2) The spontaneous resistance rates for the compounds of the invention are determined as follows: the bacterial microbes are cultivated in 30 ml of a minimal medium (18.5 mM Na2HPO4, 5.7 mM KH2PO4, 9.3 mM NH4Cl, 2.8 mM MgSO4, 17.1 mM NaCl, 0.033 μg/ml thiamine hydrochloride, 1.2 μg/ml nicotinic acid, 0.003 μg/ml biotin, 1% glucose, 25 μg/ml of each proteinogenic amino acid with the addition of 0.4% BH broth) at 37° C. overnight, centrifuged at 6000×g for 10 min and resuspended in 2 ml of phosphate-buffered physiological NaCl solution (about 2×10^9 microbes/ml). […] The resulting colonies (cfu) are counted.

S. aureus RN4220Bi^R = assay: Rate of spontaneous resistance; assay type: cell-based
Procedure: as §1, §2

S. aureus RN4220 = assay: Rate of spontaneous resistance; assay type: cell-based
Procedure: as §1, §2

S. aureus T17 = assay: Rate of spontaneous resistance; assay type: cell-based; conditions: 10 × MIC
Procedure: as §1, §2

S. pneumoniae G9a = assay: Rate of spontaneous resistance; assay type: cell-based; conditions: 5 × MIC; * = colonies with increased MIC (4-8-fold) were isolated
E. faecalis ICB 27159 = assay: Rate of spontaneous resistance; assay type: cell-based; conditions: * = colonies with increased MIC (4-8-fold) were isolated
E. faecium L4001 = assay: Rate of spontaneous resistance; assay type: cell-based

Structure (SMILES) | IC50 ([1]; Table A) | IC50 ([1]; Table B) | Rate of spontaneous resistance S. aureus 133 (S. aureus 133; 10 × MIC) | Rate of spontaneous resistance S. aureus RN4220Bi^R (S. aureus RN4220Bi^R; 10 × MIC) | Rate of spontaneous resistance S. aureus RN4220 (S. aureus RN4220; 10 × MIC) | Rate of spontaneous resistance S. aureus T17 (S. aureus T17) | Rate of spontaneous resistance S. aureus 133 (S. aureus 133) | Rate of spontaneous resistance S. aureus RN4220Bi^R (S. aureus RN4220Bi^R) | Rate of spontaneous resistance S. aureus RN4220 (S. aureus RN4220) | Rate of spontaneous resistance S. pneumoniae G9a (S. pneumoniae G9a) | Rate of spontaneous resistance E. faecalis ICB 27159 (E. faecalis ICB 27159; 5 × MIC) | Rate of spontaneous resistance E. faecalis ICB 27159 (E. faecalis ICB 27159; 10 × MIC) | Rate of spontaneous resistance E. faecium L4001 (E. faecium L4001; 5 × MIC) | Rate of spontaneous resistance E. faecium L4001 (E. faecium L4001; 10 × MIC)
CN1C(=O)[C@H](C[C@@H](O)CN)NC(=O)[C@@H](N)Cc2cc(ccc2O)-c2ccc(O)c(c2)C[C@H]1C(=O)NCCN [Example 1, (8S,11S,14S)-14-amino-N-(2-aminoethyl)-11-[(2R)-3-amino-2-hydroxypropyl]-5,17-dihydroxy-9-methyl-10,13-dioxo-9,12-diazatricyclo[14.3.1.1.^2,6]henicosa-1(20),2(21),3,5,16,18-hexaene-8-carboxamide, trihydrochloride] | 100 nM | 100 nM | <4 × 10^−8 | <6 × 10^−8 | <6 × 10^−8 | <4 × 10^−8 |  |  |  |  |  |  |  | 
NCCC[C@@H]1NC(=O)[C@@H](N)Cc2cc(ccc2O)-c2ccc(O)c(c2)C[C@@H](C(=O)NCCN)NC1=O [Example 6, (8S,11S,14S)-14-amino-N-(2-aminoethyl)-11-(3-aminopropyl)-5,17-dihydroxy-10,1 3-dioxo-9,12-diazatricyclo[14.3.1.1^2,6]henicosa-1(20),2(21),3,5,16,18-hexaene-8-carboxamide] | 500 nM | 500 nM | <8 × 10^−9 | <4 × 10^−9 | <6 × 10^−9 |  | <8 × 10^−9* | <8 × 10^−9* | <6 × 10^−9* | <4 × 10^−8* | <4 × 10^−9* | <4 × 10^−10* | 4 × 10^−8 | <4 × 10^−9
NC[C@H](O)C[C@@H]1NC(=O)[C@@H](N)Cc2cc(ccc2O)-c2ccc(O)c(c2)C[C@@H](C(=O)O)NC1=O [Example 20A, 14(S)-Amino-1(S)-(3-amino-2(R)-hydroxypropyl)-5,17-dihydroxy-10,13-dioxo-9,12-diazatricyclo[14.3.1.1^2,6]henicosa-1(19),2,4,6(21),16(20),17-hexaene-8(S)-carboxylic acid dihydrochloride, reference compound] | 1500 nM | 1500 nM | <1.7 × 10^−6 |  |  |  |  |  |  |  |  | 4.1 × 10^−6 |  | 

— patent publication US20050256037A1, “Antibacterial amide macrocyles” (Bayer HealthCare AG, priority 2003, published 2005)
